Like-named read-outs stand apart in the source and are kept apart here.
Columns and labels:
[1] = tested on: mammalian thioredoxin reductase (TXR); conditions: cited from earlier work
[2] = molecular target: T1, glutathione reductase (GR) (Homo sapiens, UniProt P00390); conditions: cited from earlier work
T1 sequence (P00390 44-522): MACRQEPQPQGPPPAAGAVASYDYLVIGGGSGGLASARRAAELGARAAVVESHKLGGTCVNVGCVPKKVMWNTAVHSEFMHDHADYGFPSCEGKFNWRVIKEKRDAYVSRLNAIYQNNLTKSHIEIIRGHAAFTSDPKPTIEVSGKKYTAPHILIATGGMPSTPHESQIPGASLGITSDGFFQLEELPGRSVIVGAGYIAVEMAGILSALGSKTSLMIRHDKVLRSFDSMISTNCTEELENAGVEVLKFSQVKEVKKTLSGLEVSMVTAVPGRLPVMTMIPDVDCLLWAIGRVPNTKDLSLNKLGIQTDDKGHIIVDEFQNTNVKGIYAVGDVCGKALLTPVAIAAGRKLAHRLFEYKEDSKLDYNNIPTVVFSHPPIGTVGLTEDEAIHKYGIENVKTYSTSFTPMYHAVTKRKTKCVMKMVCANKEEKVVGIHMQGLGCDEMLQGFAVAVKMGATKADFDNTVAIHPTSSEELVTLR

[3] = molecular target: T1, glutathione reductase (GR); assay: NADPH oxidation, glutathione reductase (GR) alone; assay type: biochemical; conditions: for NADPH Oxidation, GR: Disulfide 0.5 mM, n = 6
Protocol: (§1) The Formula (I) compound was utilized at a concentration of 0.5 mM.

[4] = molecular target: T2, Thioredoxin Reductase (Bos taurus, UniProt O62768); assay: NADPH oxidation at 340 nm, thioredoxin reductase only; assay type: biochemical, bovine; conditions: Disulfide 0.5 mM; minimum of triplicate assays
T2 sequence (O62768 1-499): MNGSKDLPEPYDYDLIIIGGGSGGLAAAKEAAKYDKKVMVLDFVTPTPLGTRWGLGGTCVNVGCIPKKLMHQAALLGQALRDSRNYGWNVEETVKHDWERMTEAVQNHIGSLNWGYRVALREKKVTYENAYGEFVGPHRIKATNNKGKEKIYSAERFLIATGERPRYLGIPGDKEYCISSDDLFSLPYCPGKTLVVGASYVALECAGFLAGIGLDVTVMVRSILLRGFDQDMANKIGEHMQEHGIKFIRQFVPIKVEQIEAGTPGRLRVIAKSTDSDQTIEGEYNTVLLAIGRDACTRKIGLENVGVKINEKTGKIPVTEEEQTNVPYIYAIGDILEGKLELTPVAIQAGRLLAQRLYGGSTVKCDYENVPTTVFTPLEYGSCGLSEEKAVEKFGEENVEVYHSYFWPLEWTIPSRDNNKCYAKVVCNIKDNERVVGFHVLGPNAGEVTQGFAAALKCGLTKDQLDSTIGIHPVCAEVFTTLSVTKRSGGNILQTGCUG
Protocol: (§2) Biochemistry 21:6628-6633 (1982).
(§3) Data was then collected and plotted in Microsoft Excel. Error calculations, and graphical representations were performed in Microsoft Excel and Kaleidograph (ver. 3.5). Nonlinear data was graphically rendered using Kaleidograph. ANOVA and other statistical analyses were performed using SAS (ver. 8.2). Unless otherwise noted, significance level was set at 0.05, and error bars represent actual experimental standard deviation.
(§4) It should be noted that for the purposes of FIG. 17 only, thioredoxin is labeled TXR and thioredoxin reductase is labeled TRR.

[5] = molecular target: T3, GR + GRX + GSH (coupled glutaredoxin/glutathione/glutathione reductase system) (Homo sapiens, UniProt P35754); assay: NADPH oxidation, coupled GRX/GSH/GR system; assay type: biochemical; conditions: Disulfide 0.5 mM; n = 6
T3 sequence (P35754 1-106): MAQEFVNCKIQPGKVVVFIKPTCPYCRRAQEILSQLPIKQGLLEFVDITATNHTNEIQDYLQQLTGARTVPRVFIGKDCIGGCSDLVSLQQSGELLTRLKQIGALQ
Protocol: as §1

[6] = molecular target: T4, GR + GSH (Homo sapiens, UniProt P00390); assay: NADPH oxidation, GR + GSH; assay type: biochemical; conditions: Disulfide 0.5 mM; n = 6
T4 sequence (P00390 44-522): T1 sequence (P00390 44-522)
Protocol: as §1

[7] = molecular target: T5, Thioredoxin Reductase + Thioredoxin (Bos taurus, UniProt O97680); assay: NADPH oxidation at 340 nm, coupled thioredoxin (TX)/thioredoxin reductase (TXR)/NADPH system; assay type: biochemical, bovine; conditions: Disulfide 0.5 mM; minimum of triplicate assays
T5 sequence (O97680 1-105): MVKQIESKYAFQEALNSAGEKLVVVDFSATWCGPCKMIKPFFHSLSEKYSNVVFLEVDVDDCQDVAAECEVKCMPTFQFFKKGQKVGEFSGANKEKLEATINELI
Protocol: as §2, §3, §4
Table 4, below, illustrates that various Formula (I) compounds (i.e., disulfide-containing compounds) of the present invention can serve as alternate substrate inhibitors for the coupled thioredoxin (TX)/thioredoxin reductase (TXR)/NADPH system as measured by the oxidation of NADPH. In Table 4, the Formula (I) compounds were utilized at a concentration of 0.5 mM.

[8] = tested on: whole cells; assay: whole cell mediated disulfide reduction (α-lipoic acid, hydroxyethyldisulfide); assay type: cell-based; conditions: mesna in combination with cisplatin
[9] = tested on: ovarian cancer cell lines; assay: cytotoxicity study in combination with oxaliplatin, ovarian cancer cell lines; assay type: cell-based, human; conditions: mesna 100 μM in combination with oxaliplatin vs oxaliplatin alone controls
[10] = tested on: brain cancer cells; assay: cytotoxicity study in combination with oxaliplatin, brain cancer cells; assay type: cell-based, human; conditions: oxaliplatin and mesna, observable but not statistically significant
[11] = tested on: non-small cell lung carcinoma (NSCLC) cell lines; assay: cytotoxicity study in combination with chemotherapeutic agents, NSCLC cell lines; assay type: cell-based, human
[12] = tested on: cellular ribonucleotide reductase in human cancer cells; conditions: literature; cited from earlier work
[13] = literature studies, result in words

## O=C(O)C(=O)O.[NH-][C@@H]1CCCC[C@H]1[NH-].[Pt+2] [oxaliplatin]
[1]
  inhibition of TXR: irreversibly inhibited
[2]
  inhibition of GR: not GR

## N[C@@H](CSSCCS(=O)(=O)O)C(=O)NCC(=O)O [BNP7776]
[3]
  NADPH Oxidation, GR: 0.0 ± 0.7 nmol/min/mL
[4]
  NADPH Oxidation, Thioredoxin Reductase only: 0.2 ± .04 nmol/min/mL
[5]
  NADPH Oxidation, GR + GRX + GSH: 22.0 ± 0.5 nmol/min/mL
[6]
  NADPH Oxidation, GR + GSH: 4.1 ± 1.0 nmol/min/mL
[7]
  NADPH Oxidation, Thioredoxin Reductase + Thioredoxin: 15.8 ± 0.3 nmol/min/mL

## N[C@@H](Cc1ccc(N(CCCl)CCCl)cc1)C(=O)O [melphalan]
[1]; [13]
  inhibition of TXR: irreversibly inhibited
[2]; [13]
  inhibition of GR: not GR

## NC(CCC(=O)NC(CSSCCS(=O)(=O)O)C(=O)O)C(=O)O (stereo not shown) [BNP7774]
[3]
  NADPH Oxidation, GR: 0.04 ± 0.12 nmol/min/mL
[4]
  NADPH Oxidation, Thioredoxin Reductase only: 0.3 ± 0.02 nmol/min/mL
[5]
  NADPH Oxidation, GR + GRX + GSH: 37.0 ± 2.1 nmol/min/mL
[6]
  NADPH Oxidation, GR + GSH: 2.4 ± 0.7 nmol/min/mL
[7]
  NADPH Oxidation, Thioredoxin Reductase + Thioredoxin: 9.6 ± 0.2 nmol/min/mL

## NC(CCSSCCS(=O)(=O)O)C(=O)O (stereo not shown) [BNP7768]
[3]
  NADPH Oxidation, GR: 0.16 ± 0.96 nmol/min/mL
[4]
  NADPH Oxidation, Thioredoxin Reductase only: 0.0 ± 0.03 nmol/min/mL
[5]
  NADPH Oxidation, GR + GRX + GSH: 10.7 ± 0.7 nmol/min/mL
[6]
  NADPH Oxidation, GR + GSH: 0.88 ± 0.2 nmol/min/mL
[7]
  NADPH Oxidation, Thioredoxin Reductase + Thioredoxin: 8.6 ± 0.06 nmol/min/mL

## O=NN(CCCl)C(=O)NCCCl [carmustine]
[1]; [13]
  inhibition of TXR: can inhibit
[2]; [13]
  inhibition of GR: can inhibit

## O=P1(N(CCCl)CCCl)NCCCO1 (stereo not shown) [cyclophosphamide]
[1]; [13]
  inhibition of TXR: irreversibly inhibited
[2]; [13]
  inhibition of GR: not GR

## O=P1(NCCCl)OCCCN1CCCl (stereo not shown) [ifosfamide]
[1]; [13]
  inhibition of TXR: inhibited

## CS(=O)(=O)OCCCCOS(C)(=O)=O [busulfan]
[1]; [13]
  inhibition of TXR: irreversibly inhibited
[2]; [13]
  inhibition of GR: not GR

## O=S(=O)([O-])CCS.[Na+] [mesna, 2-mercapto ethane sulfonate sodium]
[8]
  reduction of α-lipoic acid (TX/TXR substrate) or hydroxyethyldisulfide (GRX substrate) by whole cells: enhanced
[9]
  cytotoxic effect of oxaliplatin: markedly enhanced
[10]
  oxaliplatin cytotoxicity: lesser increase
[11]; mesna 100 μM in combination with oxaliplatin vs oxaliplatin alone controls
  cytotoxic effect of oxaliplatin: markedly enhanced
[11]; mesna 100 μM in combination with paclitaxel vs paclitaxel alone controls
  cytotoxic effect of paclitaxel: enhanced

## O=C(O)CCCc1ccc(N(CCCl)CCCl)cc1 [chlorambucil]
[1]; [13]
  inhibition of TXR: irreversibly inhibited
[2]; [13]
  inhibition of GR: not GR

## CC1=C(/C=C/C(C)=C/C=C/C(C)=C\C(=O)O)C(C)(C)CCC1 [13-cis-retinoic acid]
[1]; [13]
  inhibition of TXR: irreversible inhibition

## N[C@@H](CCC(=O)N[C@@H](CSSCCS(=O)(=O)O)C(=O)NCC(=O)O)C(=O)O [BNP7772]
[3]
  NADPH Oxidation, GR: 8.0 ± 0.6 nmol/min/mL
[3]; result in words
  substrate / alternative substrate inhibitor for glutathione reductase: functions as an alternative substrate inhibitor
[4]
  NADPH Oxidation, Thioredoxin Reductase only: 0.3 ± 0.02 nmol/min/mL
[5]
  NADPH Oxidation, GR + GRX + GSH: 71.0 ± 7.9 nmol/min/mL
[6]
  NADPH Oxidation, GR + GSH: 11.3 ± 0.8 nmol/min/mL
[7]
  NADPH Oxidation, Thioredoxin Reductase + Thioredoxin: 14.1 ± 0.1 nmol/min/mL

## N.N.O=C([O-])C1(C(=O)[O-])CCC1.[Pt+2] [carboplatin]
[1]; [13]
  inhibition of TXR: could not inhibit
[2]; [13]
  inhibition of GR: could not inhibit

## COc1cccc2c1C(=O)c1c(O)c3c(c(O)c1C2=O)C[C@@](O)(C(C)=O)C[C@@H]3O[C@H]1C[C@H](N)[C@H](O)[C@H](C)O1 [daunorubicin]
[1]
  inhibition of TXR: not inhibitors

## N.N.[Cl][Pt][Cl] [cisplatin, cis-diamminedichloroplatinum]
[1]; [13]
  inhibition of TXR: irreversibly inhibited
[2]; [13]
  inhibition of GR: not GR

## N.N.[Cl][Pt+2][Cl] [transplatin]
[1]
  inhibition of TXR: irreversibly inhibited
[2]
  inhibition of GR: not GR

## CCOC(=O)NC1=C(N2CC2)C(=O)C(NC(=O)OCC)=C(N2CC2)C1=O [Diaziquone]
[12]
  inhibition of the TR/TXR system resulting in inhibition of cellular ribonucleotide reductase activity: concentration-dependent inhibition

## NC(CSSCCS(=O)(=O)O)C(=O)O (stereo not shown) [BNP7766]
[3]
  NADPH Oxidation, GR: 0.0 ± 0.01 nmol/min/mL
[4]
  NADPH Oxidation, Thioredoxin Reductase only: 0.2 ± 0.03 nmol/min/mL
[5]
  NADPH Oxidation, GR + GRX + GSH: 28.3 ± 2.0 nmol/min/mL
[6]
  NADPH Oxidation, GR + GSH: 4.1 ± 1.3 nmol/min/mL
[7]
  NADPH Oxidation, Thioredoxin Reductase + Thioredoxin: 14.4 ± 0.2 nmol/min/mL

## COc1cccc2c1C(=O)c1c(O)c3c(c(O)c1C2=O)C[C@@](O)(C(=O)CO)C[C@@H]3O[C@H]1C[C@H](N)[C@H](O)[C@H](C)O1 [doxorubicin]
[1]; [13]
  inhibition of TXR: not inhibitors
[12]
  inhibition of the TR/TXR system resulting in inhibition of cellular ribonucleotide reductase activity: concentration-dependent inhibition

— US9320760B2, “Compositions and methods of use of compounds to increase cancer patient survival time” (BioNumerik Pharmaceuticals, Inc., priority 2008, dated 2016)
